Data set [1] in a line: Plasma nutrikinetics of unconjugated phenolic/aromatic acids after curry test meals (LC-MS/MS, non-compartmental). As to conditions: for AUC(0-t) / Cmax: male, human; for plasma concentration: all three doses. From the text: The detailed methods for this Polyspice study have been described elsewhere. In brief, this was a three-way randomized, controlled, crossover, acute feeding trial in healthy Chinese males (age 23.7 ± 2.30 y, BMI 23.0 ± 2.31 kg/m^2). Three days prior to the main test day, each volunteer avoided vigorous physical activity and adopted a low polyphenol diet. To help adhere to a ‘low polyphenol diet’ in this run-in period, volunteers were provided with a list of polyphenol rich foods to avoid, which consisted of some fruits and fruit juices, spices and condiments, olive oil, certain vegetables, whole grain cereals, cocoa products, tea (including Green tea), coffee, red wine etc. […] On the main test day, the volunteers arrived at the study center in the morning after an overnight fasting period of a minimum of 10 h. On each of 3 test sessions, the volunteers consumed in random order 1 of 3 test meals: Dose 0 Control (D0C), Dose 1 Curry (D1C) and Dose 2 Curry (D2C). D0C, D1C, and D2C contained 0 g, 6 g, and 12 g mixed spices respectively. The mixed spices were prepared by thoroughly mixing dried powders of 7 different spices consisting of turmeric (Everest Spices, Mumbai, India), coriander seeds (Everest Spices, Mumbai, India), cumin seeds (Everest Spices, Mumbai, India), dried Indian gooseberry (‘amla’, Emblica officinalis, Ramdev Spices, Ahmedabad, India), cayenne pepper (Robertson’s, Durban, South Africa), cinnamon (McCormick’s, Baltimore, MD, USA), and clove (Robertson’s, South Africa) in the ratio of 8:4:4:4:2:1:1 respectively. The ‘base vegetables’ used in the curry recipes consisted of tomatoes, onions, ginger, and garlic in the ratio of 5:2:1:1, with D0C, D1C and D2C containing 0 g, 90 g, and 180 g base vegetables respectively. […] The 3 test meals were matched for total vegetable content by including 130 g peeled eggplant (Solanum melongena) and 50 g tomatoes to D0C and 90 g peeled eggplant to D1C. Plain white rice was consumed along with each test meal and the composition of all 3 test meals were isocaloric and macronutrients matched. A standardized lunch was served after the 3 h postprandial blood draw time point, consisting of a made-to-order chicken lasagna (TopChoice Food Industries (S) Pte Ltd., Singapore), which specifically excluded polyphenol-rich ingredients such as black pepper, herbs, spices, onion, garlic or ginger from the product’s original recipe. There was a minimum of 1-week washout period between each session.
The plasma sample was centrifuged at 1500 g for 10 min at 4 °C within 45 min of collection. Aliquots were stored at −80 °C until analysis.
The panel of phenolic/aromatic acids chosen for analyses were based on the predicted metabolic fate of polyphenols contained within the ingredients used in our test meals, as described above. […] Ultra-pure water from Adrona (Rīga, Latvija) was used. Unless otherwise stated, all chemicals and reagents were obtained from Sigma-Aldrich (St. Louis, MO, USA).
Stock solutions of 10 mM of each analyte were prepared in acetonitrile. Baseline (0 h) plasma was pooled from all participants and used as a matrix in equal volume for each calibration standard. […] All standard solutions were freshly prepared and kept in −20 °C prior to use.
Protein precipitation was undertaken using 400 μL acetonitrile containing 1 µM of BA-d5 internal standard was added to 100 μL of plasma, calibration, quality control or blank samples. The sample was centrifuged at 16,000 g for 15 min at 4 °C. 400 μL of the supernatant was recovered and evaporated under a nitrogen flow. Finally, extracts were reconstituted with 80 μL of 90% mobile phase A and 10% mobile phase B.

On the set-up of data set [2]: method as in PMID 23604435. As to conditions: cited from earlier work.
Data set [3] in a line: Compartmental nutrikinetic modeling of the CNA plasma concentration-time profile (one-compartment, first-order elimination). To be noted: male, human, oral; for AUC: read-out: AUC (one-compartment model); for Cmax: read-out: Cmax (one-compartment model); for k el: read-out: Ke, elimination rate constant (converted). The data set is classed as in vivo. The procedure:
Compartmental parameter estimates for CNA were determined after fitting of concentration data to several compartmental models on Phoenix WinNonlin (Table S3). The Gauss-Newton algorithm was applied and the final model selection was based on goodness-of-fit comparisons, examination of the residual plots, correlation of the observed and predicted values, and Akaike information criterion. 1/Y^2 model yielded the best fit amongst the various weighting schemes used (1/Y, 1/Y^2, and actual). The final nutrikinetic curve best fit into a one-compartment, first-order elimination, as described by:(1) C(T)=DKa/V (Ka−Ke) [e^−KeT−e^−KaT] where C is the plasma concentration, T is time, Ka is the first-order absorption rate, Ke is the first-order elimination rate constant, D is dose, and V is the apparent volume of distribution. Secondary parameters determined from the model included the Cmax, Tmax, AUC0–7 h as well as the terminal half-life.

For data set [4] the following is noted: cited from earlier work.
Setting [5] is: plasma, oral, 12 g mixed spices.
[6] abbreviates: 0 g mixed spices, D0C, Figure 2C.
Setting [7] is: 6 g mixed spices, D1C, Figure 2C.
Where [8] appears, read: 12 g mixed spices, D2C, Figure 2C.

Read-outs that look alike come from different tables or passages of the source.

As for `O=C(O)Cc1ccccc1` [Phenylacetic acid (PAA), phenylacetic acid], the AUC(0-t) – broadly, the area under the concentration-time curve up to a stated or last time point – was 1.74 ± 1.24 µM·h in data set [1] (in vivo, 0 g mixed spices); 4.44 ± 2.97 µM·h in data set [1] (in vivo, 6 g mixed spices); 4.13 ± 2.95 µM·h in data set [1] (in vivo, 12 g mixed spices). In addition, the Cmax (in general, the maximum level reached in the sampled fluid or tissue) in data set [1] (in vivo, 0 g mixed spices) is 433 ± 287 nM; in data set [1] (in vivo, 6 g mixed spices), 1020 ± 826 nM; in data set [1] (in vivo, 12 g mixed spices), 1000 ± 666 nM.

As to `O=C(O)Cc1ccc(O)cc1` [4-Hydroxyphenylacetic acid (4OH-PAA), 4-hydroxyphenylacetic acid], the area under the curve AUC(0-t) in data set [1] (plasma, oral, 0 g mixed spices) stood at 2.07 ± 1.45 µM·h; in data set [1] (plasma, oral, 6 g mixed spices), 2.38 ± 1.07 µM·h; in data set [1] (setting [5]), 2.17 ± 1.07 µM·h. In addition, the Cmax in data set [1] (plasma, oral, 0 g mixed spices) stood at 566 ± 322 nM; in data set [1] (plasma, oral, 6 g mixed spices) it was 667 ± 305 nM; in data set [1] (setting [5]), 633 ± 285 nM.

As for `O=C(O)c1ccccc1` [Benzoic acid (BA), benzoic acid], the AUC(0-t) in data set [1] (in vivo, 0 g mixed spices) came out at 0.348 ± 0.0868 µM·h; in data set [1] (in vivo, 6 g mixed spices), 0.347 ± 0.107 µM·h; in data set [1] (in vivo, 12 g mixed spices), 0.355 ± 0.123 µM·h. Besides, the Cmax in data set [1] (in vivo, 0 g mixed spices) stood at 114 ± 36.7 nM; in data set [1] (in vivo, 6 g mixed spices), 113 ± 33.6 nM; in data set [1] (in vivo, 12 g mixed spices), 109 ± 34.6 nM.

In the case of `O=C(O)CNC(=O)c1ccc(O)cc1` [4-Hydroxyhippuric acid (4OH-HA), 4-hydroxyhippuric acid], in data set [1], the plasma concentration entry is listed as “below detection limits”.

Regarding `O=C(O)CCc1cccc(O)c1` [3-(3-hydroxyphenyl)-propanoic acid], the AUC(0-t) in data set [1] (plasma, oral, 0 g mixed spices) is 0.182 ± 0.126 µM·h; in data set [1] (plasma, oral, 6 g mixed spices), 0.283 ± 0.388 µM·h; in data set [1] (setting [5]) it was 0.226 ± 0.177 µM·h. For the same compound, the Cmax is 58.9 ± 39.1 nM in data set [1] (plasma, oral, 0 g mixed spices); 83.3 ± 79.5 nM in data set [1] (plasma, oral, 6 g mixed spices); 72.5 ± 48.6 nM in data set [1] (setting [5]).

For `O=C(O)c1ccc(O)cc1` [4-Hydroxybenzoic acid (4OH-BA), 4-hydroxybenzoic acid], the AUC(0-t) was 0.036 ± 0.0233 µM·h in data set [1] (plasma, oral, 0 g mixed spices); 0.0542 ± 0.0346 µM·h in data set [1] (plasma, oral, 6 g mixed spices); 0.114 ± 0.207 µM·h in data set [1] (setting [5]). Also, the Cmax turned out to be 13.7 ± 9.9 nM in data set [1] (plasma, oral, 0 g mixed spices); 18.3 ± 12.4 nM in data set [1] (plasma, oral, 6 g mixed spices); 41.5 ± 101 nM in data set [1] (setting [5]).

As for `O=C(O)CCc1ccccc1` [3-Phenylpropanoate acid (PPA), 3-phenylpropanoic acid], the AUC(0-t) is 0.831 ± 0.784 µM·h in data set [1] (plasma, oral, 0 g mixed spices); 2.39 ± 4.37 µM·h in data set [1] (plasma, oral, 6 g mixed spices); 1.86 ± 3.43 µM·h in data set [1] (setting [5]). Also, the Cmax in data set [1] (plasma, oral, 0 g mixed spices) came to 279 ± 322 nM; in data set [1] (plasma, oral, 6 g mixed spices), 731 ± 1220 nM; in data set [1] (setting [5]) it was 554 ± 985 nM.

With `O=C(O)CNC(=O)c1ccccc1` [Hippuric acid (HA), hippuric acid], the AUC(0-t) in data set [1] (plasma, oral, 0 g mixed spices) is 1.83 ± 1.42 µM·h; in data set [1] (plasma, oral, 6 g mixed spices) it was 3.22 ± 3.1 µM·h; in data set [1] (setting [5]), 3.06 ± 1.8 µM·h. In addition, the Cmax worked out at 1290 ± 706 nM in data set [1] (plasma, oral, 0 g mixed spices); 1370 ± 1170 nM in data set [1] (plasma, oral, 6 g mixed spices); 1080 ± 616 nM in data set [1] (setting [5]). Also, the “maximum concentration in plasma” value in data set [1] (most abundant phenolic acid in plasma, Table 1) is on record as “above 1200 nM”. The half-life (commonly the time in which the quantity being followed falls by half) in data set [2] is 1320 min.

As for `O=C(O)CNC(=O)c1cccc(O)c1` [3-Hydroxyhippuric acid (3OH-HA), 3-hydroxyhippuric acid], the AUC(0-t) in data set [1] (plasma, oral, 0 g mixed spices) was determined as 0.0707 ± 0.0616 µM·h; in data set [1] (plasma, oral, 6 g mixed spices), 0.0801 ± 0.0683 µM·h; in data set [1] (setting [5]), 0.0884 ± 0.0854 µM·h. In addition, the Cmax in data set [1] (plasma, oral, 0 g mixed spices) was 26.3 ± 22.5 nM; in data set [1] (plasma, oral, 6 g mixed spices) it was 27.4 ± 19.1 nM; in data set [1] (setting [5]), 31.3 ± 26.5 nM.

Regarding `O=C(O)/C=C/c1ccccc1` [Cinnamic acid (CNA), cinnamic acid], the “time of plasma peak post consumption” value in data set [1] (D1C and D2C) is reported as “approximately 1 h”. The “time of secondary peak in plasma” value in data set [1] (D1C and D2C periods, Figure 2A) was “around 3 h”. Further, the AUC(0-t) in data set [1] (plasma, oral, 0 g mixed spices) amounted to 0.0084 ± 0.0034 µM·h; in data set [1] (plasma, oral, 6 g mixed spices), 0.376 ± 0.105 µM·h; in data set [1] (setting [5]), 0.876 ± 0.292 µM·h. For the same compound, the Cmax was 2.4 ± 0.7 nM in data set [1] (plasma, oral, 0 g mixed spices); 164 ± 47.7 nM in data set [1] (plasma, oral, 6 g mixed spices); 342 ± 83 nM in data set [1] (setting [5]); 2.73 nM in data set [3] (setting [6]); 144 nM in data set [3] (setting [7]); 323 nM in data set [3] (setting [8]). The area under the curve (AUC) (as a rule, concentration integrated over time) in data set [3] (setting [6]) worked out at 0.0254 µM·h; in data set [3] (setting [7]) it was 0.347 µM·h; in data set [3] (setting [8]), 0.847 µM·h. Also, the k el in data set [3] (setting [6]) is 8.06e-05 s⁻¹; in data set [3] (setting [7]) it was 0.000297 s⁻¹; in data set [3] (setting [8]), 0.000289 s⁻¹. The half-life in data set [3] (0 g mixed spices, D0C, Figure 2C, read-out: T0.5, half-life (converted)) was 142 min; in data set [3] (6 g mixed spices, D1C, Figure 2C, read-out: T0.5, half-life (converted)), 39 min; in data set [3] (12 g mixed spices, D2C, Figure 2C, read-out: T0.5, half-life (converted)) it was 40.2 min; in data set [3] (no lag time, 1st order absorption, 1st order elimination, 1-compartment model, assumes elimination is rate-limiting, read-out: average elimination half-life (converted)), 39.6 min. Further, the Tmax (commonly the time at which the peak concentration occurs) in data set [3] (0 g mixed spices, D0C, Figure 2C, read-out: Tmax (one-compartment model)) amounted to 205 min; in data set [3] (6 g mixed spices, D1C, Figure 2C, read-out: Tmax (one-compartment model)), 56.4 min; in data set [3] (12 g mixed spices, D2C, Figure 2C, read-out: Tmax (one-compartment model)), 58.2 min; in data set [3] (no lag time, 1st order absorption, 1st order elimination, 1-compartment model, read-out: Tmax (average, compartmental model)), 57.6 min. For the same compound, in data set [4], the “fraction eliminated via oxidation (β-oxidation) and subsequent glycine conjugation to form HA” value is given as 63%.

For `O=C(O)c1cccc(O)c1` [3-Hydoxybenzoic acid (3OH-BA), 3-hydroxybenzoic acid], the plasma concentration result in data set [1] is listed as “below detection limits”.

With `O=C(O)Cc1cccc(O)c1` [3-Hydroxyphenylacetic acid (3OH-PAA), 3-hydroxyphenylacetic acid], the AUC(0-t) in data set [1] (plasma, oral, 0 g mixed spices) was found to be 0.101 ± 0.112 µM·h; in data set [1] (plasma, oral, 6 g mixed spices) it was 0.106 ± 0.07 µM·h; in data set [1] (setting [5]), 0.113 ± 0.0904 µM·h. In addition, the Cmax amounted to 28.1 ± 26.2 nM in data set [1] (plasma, oral, 0 g mixed spices); 27.2 ± 15.8 nM in data set [1] (plasma, oral, 6 g mixed spices); 29.1 ± 20.5 nM in data set [1] (setting [5]).

In the case of `O=C(O)CCc1ccc(O)cc1` [3-(4-hydroxyphenyl)-propanoic acid], the AUC(0-t) was 0.126 ± 0.115 µM·h in data set [1] (plasma, oral, 0 g mixed spices); 0.178 ± 0.12 µM·h in data set [1] (plasma, oral, 6 g mixed spices); 0.261 ± 0.132 µM·h in data set [1] (setting [5]). For the same compound, the Cmax in data set [1] (plasma, oral, 0 g mixed spices) was determined as 31.4 ± 25 nM; in data set [1] (plasma, oral, 6 g mixed spices), 48.6 ± 36.6 nM; in data set [1] (setting [5]), 81.7 ± 102 nM.

Values taken from publication PMC6073423, “Dose-Dependent Increase in Unconjugated Cinnamic Acid Concentration in Plasma Following Acute Consumption of Polyphenol Rich Curry in the Polyspice Study” (Nutrients, 2018).
